Assay results from US9687558B2, “Antitumoral bioconjugates of hyaluronic acid or its derivatives obtained by indirect chemical conjugation, and their use in the pharmaceutical field” (priority 2005, dated 2017).

Tests used:
[1] = system: colic adenocarcinoma HT29 cells; test: Cytotoxicity test in vitro on HT29 cells, MTT colorimetric assay; type: cell-based; details: 48 hours of contact, HA derivatives in 5% glucosated solution, SN38 in DMSO
Description: Evaluation of the Antiproliferative Activity of the Ester Conjugate HA/SN38 having a Substitution Degree Equal to 10% and 15%, on the Cellular Line of Colic Adenocarcinoma HT29
Aliquots of the derivatives obtained from examples 1 and 2 are characterized by means of a cytotoxicity test in vitro on a line of colic tumoral cells called HT29. The comparison was effected with SN38 dissolved in DMSO. The HA derivatives are solubilized in a glucosated solution at 5% at a concentration of 5 mg/ml. The test is effected by depositing on a plate with 96 cavities, 3000 cells per cavity; after 24 hours of incubation at 37° C., the cells are put in contact with the solutions and after a further 48 hours the cell vitality is determined by means of a MTT colorimetric assay (Dezinot F. et al., J. Immunol Methods, 1986, 22(89):271-277).
The proliferation curves referring to the two ester conjugates of HA are shown in the graphs (on the left the cytotoxic activity of the derivative at 15%, on the right that at 10%), see FIG. 4.
By comparing the data of EC50 with SN38 in dimethylsulfoxide (DMSO) the following results are obtained: […]

[2] = Mathijssen R H et al., Clin Cancer Res, 2001; cited from earlier work
[3] = system: DHD/K12 cells (MDR colon-rectum adenocarcinoma model); test: Cytotoxicity test in DHD/K12 cells, LIVE/DEAD Cell Vitality Assay; type: cell-based, rat; details: 0.25 μM, 48 hours of treatment
Description: The cellular line used derives from rats of the BDIX strain treated with 1,2-dimethylhydrazine.
In order to evaluate the degree of cellular vitality the LIVE/DEAD Cell Vitality Assay (Molecular Probes) was used, which allows metabolically active cells to be distinguished from dead cells: the latter emit green fluorescence at a nuclear level whereas live cells emit red fluorescence localized on the cellular membrane and in the cytoplasm. After colouring, the cells were analyzed using a confocal microscope and the percentage of live/dead cells was evaluated by counting a minimum of 500 live or dead cells per sample.

Structure (SMILES) | EC50 [1] [nM] | antitumoral activity relative to commercial prodrug (Irinotecan) [2] [times] | cytotoxic effect at low concentration [3]
CCc1c2c(nc3ccc(O)cc13)-c1cc3c(c(=O)n1C2)COC(=O)[C@]3(O)CC [SN38 in DMSO, SN38] | 5 | 100 to 1000 | 
COc1cccc2c1C(=O)c1c(O)c3c(c(O)c1C2=O)C[C@@](O)(C(=O)CO)C[C@@H]3O[C@H]1C[C@H](N)[C@H](O)[C@H](C)O1 [doxorubicin] |  |  | does not have any cytotoxic effect
